Source: patent publication US6617450B1, “P-glycoproteins and uses thereof” (Becton Dickinson and Company, priority 1999, dated 2003)

System: cynomologous monkey PGP
Assay: Polarization of vinblastine transport across cynomologous monkey PGP transfected LLC-PK1 cell monolayers in Transwells
Format: cell-based, cynomologous monkey (Macaca fascicularis)
Details: PGP transfected cells, relative to control cells; vinblastine (0.1 μM) transport in Transwells
Excerpt: Cynomologous monkey PGP cDNA (SEQ ID NO:3) is introduced into a clonal population of LLC-PK 1 cells in a vector that confers resistance to hygromycin B. LLC-PK1 cells are obtained from the American Type Culture Collections and are propagated in Medium 199 supplemented to 7% with fetal bovine serum. LLC-PK1 cells are recloned prior to transfection in order to assure homogeneity of the cell population. Briefly, cynomologous monkey PGP cDNA is incorporated into the p222CMV vector. […] The PGP cDNA is under the control of the cytomegalovirus (CMV) immediate early promoter. […] Expression of PGP is measured by the polarization of vinblastine (0.1 μM) transport in Transwells™.
LLC-PK1 cell based transport studies are conducted in 24 well Transwells™(Corning Costar, Catalog number 3415). […] Transport is measured under sink conditions in both the apical to basolateral (A to B) and basolateral to apical (B to A) directions. […] Quantitation of the amount of compound transported is by liquid scintillation counting (vinblastine) or HPLC with UV or mass spectrometric detection.
Functional expression of cynomologous monkey PGP is measured by the polarization of transport of vinblastine.

B to A/A to B ratio: much higher ratio
SMILES: CC[C@]1(O)C[C@@H]2CN(CCc3c([nH]c4ccccc34)[C@@](C(=O)OC)(c3cc4c(cc3OC)N(C)[C@H]3[C@@](O)(C(=O)OC)[C@H](OC(C)=O)[C@]5(CC)C=CCN6CC[C@]43[C@@H]65)C2)C1 [vinblastine]
